# Test results taken from publication PMC12040169 (PLOS Biology, 2025).
# Assay: in vitro
# Conditions: human, hela cells, % viability
row,Structure (SMILES),"viability at 28.5 h, 10 µM [%]"
1,CC1CCc2c(sc3ncnc(NCC(=O)N4CCCC4)c23)C1 (centres unmarked) [CBK306079],103
2,Cc1cc(NC(=O)Cc2cn3ccsc3n2)ccc1N1CCCC1 [CBK306080],79.8
3,CS(=O)(=O)NC1CCN(S(=O)(=O)c2cc(Cl)cc(Cl)c2)CC1 [CBK306082],84.3
4,Cc1nc2nc(N)nn2c(C)c1CCC(=O)OCc1cccc(C#N)c1 [CBK306083],88.1
5,CCOCCCn1c(SC(C)C#N)nc2ccc(Br)cc2c1=O (centres unmarked) [CBK306084],85.7
6,CC1CCCCN1C(=O)CCc1nc2sc3c(c2c(=O)[nH]1)CCCC3 (centres unmarked) [CBK306086],112
7,CCCC(=O)Nc1ccc(-c2csc(N3CCCC3=O)n2)cc1 [CBK306088],82
8,CC(=O)c1cccc(NC(=O)CCn2[nH]c(=O)ccc2=O)c1 [CBK306094],91.4
9,O=C(c1ccccc1)N1CCN(Cc2cc(=O)n3ccsc3n2)CC1 [CBK306095],94.4
10,O=C(c1ccccc1O)N1CCN(Cc2cc(=O)n3ccsc3n2)CC1 [CBK306096],90.2
11,CCc1nnc(SCC(=O)Nc2ccc(CN3CCOCC3)cc2)[nH]1 [CBK306097],84.7
12,O=C(c1ccc(O)nc1)N1CCN(Cc2cc(=O)n3ccsc3n2)CC1 [CBK306098],86.3
13,COCCNC(=O)c1cc(C2CC2)nc2c1cnn2C(C)C [CBK306099],101
14,CCN1CCC(NC(=O)CSc2nc3ccccc3n2CCOC)CC1 [CBK306100],118
15,COCCN1CCN(c2nc(-c3ccncc3)nc3c2CCC3)CC1 [CBK306101],95.7
16,Cc1nc(C)n(CC2CCCCN2Cc2cn3ccccc3c2C#N)n1 (centres unmarked) [CBK306102],85.1
17,Cc1nc(C)n(CC2CCCN(Cc3cn4ccccc4c3C#N)C2)n1 (centres unmarked) [CBK306103],92.6
18,CN(CC(=O)Nc1ccn(Cc2cccnc2)n1)c1ccc(C#N)cn1 [CBK306105],87.3
19,CN(C(=O)c1cccn1C)C1CCN(c2ncnc3ccccc23)CC1 [CBK306110],91.8
20,NC(=O)COc1ccc(CNC(=O)CN2CCc3sccc3C2)cc1 [CBK306111],99.4
21,Cc1nc(SCCO)c2c(=O)n(C)c(=O)n(CC(C)C)c2n1 [CBK306114],85.8
22,CCOc1ccc(CN2CCN(CC(=O)Nc3cc(C)on3)CC2)cc1 [CBK306116],115
23,Cc1cccc(NCC2CCN(CC(=O)Nc3cc(C)on3)C2)n1 (centres unmarked) [CBK306118],90.4

row,Structure (SMILES),"viability at 28.5 h, 10 µM [%]"
1,Cc1ccnc(NCC2CCN(CC(=O)Nc3cc(C)no3)C2)c1 (centres unmarked) [CBK306121],91.3
2,Cc1cccn2cc(CC(=O)NCCNC(=O)OC(C)(C)C)nc12 [CBK306122],100
3,O=C(CCc1ccccc1F)NC1CCc2nccn2C1 (centres unmarked) [CBK306124],113
4,CNC(=O)NC(=O)CN1CCC(CNc2ncccc2C#N)C1 (centres unmarked) [CBK306126],77.4
5,COC(=O)c1ccc(N2CCN(Cc3nnnn3C3CC3)C(C)C2)cc1 (centres unmarked) [CBK306129],89.6
6,Cc1ccc(-c2nn(CCC#N)cc2C(=O)N2CCCCC2)cc1C [CBK306131],94.4
7,CCOC(=O)c1cnn2c(O)cc(CN(CC(C)(C)O)C(C)C)nc12 [CBK306133],93.6
8,CC(NC(=O)CCc1cnn(C)c1)c1cccc(-n2ccnc2)c1 (centres unmarked) [CBK306139],97.3
9,CC(=O)c1ccc(C)cc1OC(=O)C1CCCN(S(C)(=O)=O)C1 (centres unmarked) [CBK306140],115
10,O=C(CN1CCCCC1Cn1cccn1)NCc1ccccn1 (centres unmarked) [CBK306146],84
11,COc1ccc(CCNC(=O)CN2CCCC2Cn2cccn2)cc1 (centres unmarked) [CBK306147],92.1
12,CCOC(=O)c1sc2nc(C(C)N(C)Cc3ccco3)[nH]c(=O)c2c1C (centres unmarked) [CBK306148],106
13,CCOC(=O)C1CCCN(C(=O)Cn2c(C)nc3ccccc3c2=O)C1 (centres unmarked) [CBK306150],77.9
14,Cc1csc(N2CCN(CC(O)COCc3ccco3)CC2)n1 (centres unmarked) [CBK306151],98.5
15,Cc1ccccc1Nc1nc(N)nc(CN2CCCC2)n1 [CBK306152],102
16,CCn1cc(CN2CCCN(C(=O)c3cc(Cl)c[nH]3)CC2)cn1 [CBK306153],90.6
17,CCc1noc(CN2CCN(c3ccc(C(=O)OC)cc3)CC2C)n1 (centres unmarked) [CBK306154],86.4
18,Cc1ccnc2nc(C(=O)OC(C)C(=O)N3CCCCCC3)nn12 (centres unmarked) [CBK306155],102
19,CN(C)C(=O)NCCNC(=O)c1c[nH]nc1-c1cc2ccccc2o1 [CBK306157],85.7
20,CCNS(=O)(=O)c1ccc2c(c1)N(Cc1ccc(CO)o1)CC2 [CBK306158],83.8
21,O=C(NCC1(O)CCSC1)c1c[nH]nc1-c1cc2ccccc2o1 (centres unmarked) [CBK306159],88.3
22,CC(CN(C)C(=O)c1c[nH]nn1)Oc1ccc(Cl)c(Cl)c1 (centres unmarked) [CBK306160],87.5
23,CC(=O)Nc1cccc(-n2nnnc2SCCCCCF)c1 [CBK306164],110

row,Structure (SMILES),"viability at 28.5 h, 10 µM [%]"
1,Cc1ccc(-c2nnc(NCc3cnn(C)c3C)o2)c(C)c1 [CBK306166],88.2
2,CC(c1ncc(Br)cn1)N1CCN(Cc2noc(C(C)(C)C)n2)CC1 (centres unmarked) [CBK306168],87.4
3,Cc1n[nH]nc1C(=O)N(C)CC(C)Oc1ccc(Cl)c(Cl)c1 (centres unmarked) [CBK306173],85.2
4,Cc1ccc2c(c1)nc(CNC(=O)NCCCO)n2C [CBK306174],86.1
5,CC1(C)CCCN(Cc2nnnn2-c2ccc(S(C)(=O)=O)cc2)CC1 [CBK306177],81.8
6,CC1(C)CCN(Cc2nnnn2-c2ccc(S(C)(=O)=O)cc2)C1 [CBK306179],94.7
7,CN(C)c1ncccc1OC1CCN(c2ccnc(C3CC3)n2)C1 (centres unmarked) [CBK306182],56.3
8,CCNS(=O)(=O)c1ccc2c(c1)N(Cc1nc(-c3ccco3)no1)CC2 [CBK306184],81.1
9,O=C(Cc1cn2ccsc2n1)Nc1ccc(N2CCCCC2)cc1 [CBK306185],79
10,O=C(Nc1cc(Cl)ccc1C(=O)NC1CCC(O)CC1)c1cccs1 (centres unmarked) [CBK306186],89.2
11,Cc1ccc2[nH]c(SC(C)C(=O)N3CCOCC3)nc2c1 (centres unmarked) [CBK306187],96
12,CCOC(=O)Cc1csc(SCC(=O)N2CCc3ccccc32)n1 [CBK306190],88.8
13,N#CCCn1cc(C(=O)N2CCCCC2)c(-c2ccc(F)cc2)n1 [CBK306191],91.8
14,N#Cc1ccsc1NC(=O)CN1CCN(c2cccc(Cl)c2)CC1 [CBK306192],81.1
15,CC1CCC2(CC1)NC(=O)N(Cc1coc(-c3ccccc3)n1)C2=O (centres unmarked) [CBK306196],98.3
16,CCN(CC(=O)Nc1c(F)cccc1F)S(=O)(=O)c1cccc(C#N)c1 [CBK306197],85.4
17,CCOC(=O)C1CCCN(Cc2nc3cc(Cl)ccc3c(=O)[nH]2)C1 (centres unmarked) [CBK306198],86.9
18,CC(C)n1c(CN2CCOCC2)nc2c1c(=O)n(C)c(=O)n2C [CBK306201],83.7
19,N#CCCn1cc(C(=O)N2CCOCC2)c(-c2cc3ccccc3o2)n1 [CBK306203],104
20,N#CCCn1cc(C(=O)N2CCOCC2)c(-c2ccccc2)n1 [CBK306207],86
21,N#CCCn1cc(C(=O)N2CCCCC2)c(-c2cccc(Cl)c2)n1 [CBK306209],80
22,CCN(C(C)=O)c1nc(CN2CCOC(c3ccc(F)cc3)C2)cs1 (centres unmarked) [CBK306213],94.3
23,COCc1cccc(Nc2ncnc3c2cnn3CCO)c1 [CBK306214],93.2

row,Structure (SMILES),"viability at 28.5 h, 10 µM [%]"
1,CCCCN(CC(F)(F)F)C(=O)Cc1csc(NC(=O)C(C)C)n1 [CBK306217],99.5
2,Cc1nc(C)n(CC2CCCN(Cc3nc4c(F)cccc4[nH]3)C2)n1 (centres unmarked) [CBK306218],110
3,CC(C)c1nc(CN2CCN(c3ccc4nncn4n3)CC2)cs1 [CBK306219],102
4,CCn1c(CN2CC(n3nc(C)cc3C)C2)nc2c(F)cccc21 [CBK306220],82
5,O=C1NC2(CCSC2)C(=O)N1Cc1noc(-c2cccs2)n1 (centres unmarked) [CBK306225],90.6
6,Cc1cc(C(=O)Nc2cc(F)c(N3CCCC3)c(F)c2)c(C)n1C1CC1 [CBK306226],102
7,CN1CCC(NC(=O)c2cccc(NC(=O)C3CCCCC3)c2)C1=O (centres unmarked) [CBK306228],81.3
8,CN(C)c1ccc(Nc2ncnc3c2cnn3CCC#N)cn1 [CBK306231],103
9,CC(=O)N(C)Cc1cccc(Nc2ncnc3c2cnn3CCC#N)c1 [CBK306232],88.5
10,Cc1cc(C)n(CC(=O)N2CCC(Nc3cccnn3)CC2)n1 [CBK306234],106
11,Cc1cc(NC(=O)N2CCCN(CC3CCCCC3)CC2)no1 [CBK306239],99.9
12,N#Cc1ccc(NCC(=O)Nc2ccn(Cc3ccncc3)n2)cc1 [CBK306241],89.7
13,CC(NC(=O)CCc1cccnc1)c1nc(-c2ccncc2)cs1 (centres unmarked) [CBK306243],90.8
14,CCOCC(=O)N(C)C1CCN(c2ncnc3ccccc23)CC1 [CBK306247],89.1
15,CC(C)NC(=O)N1CCN(Cc2nc(-c3ccoc3)no2)CC1 [CBK306248],88.2
16,O=C(Nc1cc(N2CCCS2(=O)=O)ccc1Cl)c1cc[nH]n1 [CBK306249],83.1
17,CCOC(=O)N1CCN(C(=O)Nc2ccc3oc(=O)n(C)c3c2)CC1 [CBK306250],109
18,CCCc1nc(-c2ccc3c(c2)CCCN3S(C)(=O)=O)cs1 [CBK306253],93
19,CC1CCN(C(=O)COC(=O)c2cnc(-c3ccncc3)s2)CC1 [CBK306255],94.6
20,Brc1ccc(C2(c3nnc(C4CCCO4)o3)CCOCC2)cc1 (centres unmarked) [CBK306258],117
21,CCC(NS(=O)(=O)c1cnc2c(c1)c(C)nn2C)C(O)C(F)(F)F (centres unmarked) [CBK306264],86.5
22,COc1ccc(Br)c(C(CO)N(C)C(=O)Cc2cnccc2C)c1 (centres unmarked) [CBK306267],96.4
23,O=C(NC1CCN(CC(F)(F)F)C1=O)c1ccnc(C2CC2)n1 (centres unmarked) [CBK306268],97
